In patent US12679878B2, “CRF2 receptor agonists and their use in therapy” (SANOFI, priority 2020, dated 2026):
Starred links: 1 amine or outer side, 2 acyl side, 3 side chain; linkers in the order of their positions; H or OH if unused. Non-standard residues stand in square brackets, D forms with d. Residues, ends and D or L forms follow the SMILES beside them. Groups on a side chain read outwards from the residue. *: point of attachment. C18 diacid = O=C(O)CCCCCCCCCCCCCCCCC(=O)*; γGlu = O=C(O)[C@H](CCC(=O)[*:2])N[*:1]; AEEA = NCCOCCOCC(=O)O; Aib = CC(C)(N)C(=O)O

Assay: Effect on blood pressure, telemetry (Example 17)
Type: in vivo
Conditions: Sprague Dawley rats, 0.1 mg/kg SC
Protocol: The effect of the compounds on blood pressure was determined in telemetry studies in Sprague Dawley rats at a dosage of 0.1 mg/kg SC.
The rats were previously implanted with a telemetry device (DSI, Saint-Paul, USA, HD-S10, HD-S11 or HD S21) and allowed to recover for a minimum period of 2 weeks before treatment with vehicle or the different peptides. Blood pressure (BP) was recorded through a catheter inserted into the abdominal aorta. The device body was placed in the abdomen. At the end of surgery, animals were placed in individual cages until the end of the study.
Pressure signals were recorded for one hour before the treatment (basal period). Thereafter, the subcutaneous administration of the test compound or its vehicle was performed, under continuous recording of the signal over a 48-hour period. Data acquisition was performed using Hem 4.3 acquisition software (Notocord®, Le Pecq, France) connected to the telemetry device. Hemodynamic parameters were recorded during a […] before treatment and every 4-hour period following subcutaneous administration over 48 hours.
Investigated parameters (calculated from BP signal) were Heart Rate (HR) in beats per minute (bpm), Diastolic and Systolic Blood Pressure (DBP) in mmHg, and Mean Blood Pressure (MBP) in mmHg.
Data from Hem were manipulated using Microsoft Excel®. For each parameter, a basal value was determined as the average calculated over a 1-hour period during the pre-treatment sequence, and the values post treatment were calculated over 4-hour periods ([0-4], [4-8], [8-12], [12-16], [16-20], [20-24], [24-28], [32-36], [36-40], [40-44] and [44-48] hours) covering the 48-hour period following administration.
Representative data are presented in Table 15 below, in which “n” represents the number of animals for which individual values were obtained and “Duration” indicates the last time point for which a significant effect on BP was still seen: Table 15

Row | Compound | Duration (h): last time point for which a significant effect on BP was still seen | Effect on Systolic Pressure % change from baseline 8 h | Effect on Systolic Pressure % change from baseline 24 h
1 | CC[C@H](C)[C@H](N)C(=O)N[C@H](C(=O)N[C@@H](CC(C)C)C(=O)N[C@@H](CO)C(=O)N[C@@H](CC(C)C)C(=O)N[C@@H](CC(=O)O)C(=O)N[C@@H](C(=O)N1CCC[C@H]1C(=O)N[C@H](C(=O)N[C@@H](CCCCN)C(=O)N[C@@H](CC(C)C)C(=O)N[C@@H](CCCCNC(=O)COCCOCCNC(=O)COCCOCCNC(=O)CC[C@H](NC(=O)CCCCCCCCCCCCCCCCC(=O)O)C(=O)O)C(=O)N[C@@H](CCC(N)=O)C(=O)N[C@H](C(=O)N[C@@H](CC(C)C)C(=O)N[C@@H](CC(C)C)C(=O)N[C@@H](CCC(=O)O)C(=O)N[C@@H](CCC(N)=O)C(=O)N[C@@H](C)C(=O)N[C@@H](CCCNC(=N)N)C(=O)N[C@@H](CCC(N)=O)C(=O)N[C@@H](CCCCN)C(=O)NC(C)(C)C(=O)N[C@@H](CCC(N)=O)C(=O)N[C@@H](CCCNC(=N)N)C(=O)N[C@@H](C)C(=O)N[C@@H](CCC(N)=O)C(=O)N[C@@H](C)C(=O)N[C@@H](CCC(=O)O)C(=O)N[C@@H](CCCCN)C(=O)N[C@@H](CC(N)=O)C(=O)N[C@@H](CCCCN)C(=O)N[C@@H](CCCNC(=N)N)C(=O)N[C@H](C(=O)N[C@@H](CC(C)C)C(=O)N[C@@H](CCC(=O)O)C(=O)N[C@@H](CCCNC(=N)N)C(=O)N[C@H](C(N)=O)C(C)C)[C@@H](C)CC)[C@@H](C)CC)[C@@H](C)CC)C(C)C)C(C)C [SEQ ID NO: 140, IVLSLDvPIKLK*QILLEQARQKAibQRAQAEKNKRILERV-NH2] (H-IVLSLD[dV]PIKLK([AEEA-AEEA-γGlu-C18 diacid])QILLEQARQK[Aib]QRAQAEKNKRILERV-NH2) | 32 h | −19.9% | −3.0%
2 | CC[C@H](C)[C@H](N)C(=O)N[C@H](C(=O)N[C@@H](CC(C)C)C(=O)N[C@@H](CO)C(=O)N[C@@H](CC(C)C)C(=O)N[C@@H](CC(=O)O)C(=O)N[C@@H](C(=O)N1CCC[C@H]1C(=O)N[C@H](C(=O)N[C@@H](CCCCN)C(=O)N[C@@H](CC(C)C)C(=O)N[C@@H](CCCCNC(=O)COCCOCCNC(=O)COCCOCCNC(=O)CC[C@H](NC(=O)CCCCCCCCCCCCCCCCC(=O)O)C(=O)O)C(=O)N[C@@H](CCC(N)=O)C(=O)N[C@H](C(=O)N[C@@H](CC(C)C)C(=O)N[C@@H](CC(C)C)C(=O)N[C@@H](CCCCN)C(=O)N[C@@H](CCC(N)=O)C(=O)N[C@@H](C)C(=O)N[C@@H](CCCNC(=N)N)C(=O)N[C@@H](CCC(N)=O)C(=O)N[C@@H](CCCCN)C(=O)NC(C)(C)C(=O)N[C@@H](CCC(N)=O)C(=O)N[C@@H](CCCNC(=N)N)C(=O)N[C@@H](C)C(=O)N[C@@H](CCC(N)=O)C(=O)N[C@@H](C)C(=O)N[C@@H](CCC(=O)O)C(=O)N[C@@H](CCCCN)C(=O)N[C@@H](CC(N)=O)C(=O)N[C@@H](CCCCN)C(=O)N[C@@H](CCCNC(=N)N)C(=O)N[C@H](C(=O)N[C@@H](CC(C)C)C(=O)N[C@@H](CCC(=O)O)C(=O)N[C@@H](CCCNC(=N)N)C(=O)N[C@H](C(N)=O)C(C)C)[C@@H](C)CC)[C@@H](C)CC)[C@@H](C)CC)C(C)C)C(C)C [SEQ ID NO: 141, IVLSLDvPIKLK*QILLKQARQKAibQRAQAEKNKRILERV-NH2] (H-IVLSLD[dV]PIKLK([AEEA-AEEA-γGlu-C18 diacid])QILLKQARQK[Aib]QRAQAEKNKRILERV-NH2) | 24 h | −5.2% | −4.2%
3 | CC[C@H](C)[C@H](N)C(=O)N[C@H](C(=O)N[C@@H](CC(C)C)C(=O)N[C@@H](CO)C(=O)N[C@@H](CC(C)C)C(=O)N[C@@H](CC(=O)O)C(=O)N[C@@H](C(=O)N1CCC[C@H]1C(=O)N[C@H](C(=O)N[C@@H](CCCCN)C(=O)N[C@@H](CC(C)C)C(=O)N[C@@H](CCCCNC(=O)COCCOCCNC(=O)COCCOCCNC(=O)CC[C@H](NC(=O)CCCCCCCCCCCCCCCCC(=O)O)C(=O)O)C(=O)N[C@@H](CCC(N)=O)C(=O)N[C@H](C(=O)N[C@@H](CC(C)C)C(=O)N[C@@H](CC(C)C)C(=O)N[C@@H](CCC(=O)O)C(=O)N[C@@H](CCC(N)=O)C(=O)N[C@@H](C)C(=O)N[C@@H](CCCNC(=N)N)C(=O)N[C@@H](CCC(N)=O)C(=O)N[C@@H](CCCCN)C(=O)NC(C)(C)C(=O)N[C@@H](CCC(N)=O)C(=O)N[C@@H](CCCNC(=N)N)C(=O)N[C@@H](CCC(=O)O)C(=O)N[C@@H](CCC(N)=O)C(=O)N[C@@H](C)C(=O)N[C@@H](CCC(=O)O)C(=O)N[C@@H](CCCCN)C(=O)N[C@@H](CC(N)=O)C(=O)N[C@@H](CCCCN)C(=O)N[C@@H](CCCNC(=N)N)C(=O)N[C@H](C(=O)N[C@@H](CC(C)C)C(=O)N[C@@H](CCC(=O)O)C(=O)N[C@@H](CCCNC(=N)N)C(=O)N[C@H](C(N)=O)C(C)C)[C@@H](C)CC)[C@@H](C)CC)[C@@H](C)CC)C(C)C)C(C)C [SEQ ID NO: 142, IVLSLDvPIKLK*QILLEQARQKAibQREQAEKNKRILERV-NH2] (H-IVLSLD[dV]PIKLK([AEEA-AEEA-γGlu-C18 diacid])QILLEQARQK[Aib]QREQAEKNKRILERV-NH2) | 30 h | −22.2% | −6.5%
4 | CC[C@H](C)[C@H](N)C(=O)N[C@H](C(=O)N[C@@H](CC(C)C)C(=O)N[C@@H](CO)C(=O)N[C@@H](CC(C)C)C(=O)N[C@@H](CC(=O)O)C(=O)N[C@@H](C(=O)N1CCC[C@H]1C(=O)N[C@H](C(=O)N[C@@H](CCCCN)C(=O)N[C@@H](CC(C)C)C(=O)N[C@@H](CCCCNC(=O)COCCOCCNC(=O)COCCOCCNC(=O)CC[C@H](NC(=O)CCCCCCCCCCCCCCCCC(=O)O)C(=O)O)C(=O)N[C@@H](CCC(N)=O)C(=O)N[C@H](C(=O)N[C@@H](CC(C)C)C(=O)N[C@@H](CC(C)C)C(=O)N[C@@H](CCCCN)C(=O)N[C@@H](CCC(N)=O)C(=O)N[C@@H](CCC(=O)O)C(=O)N[C@@H](CCCNC(=N)N)C(=O)N[C@@H](CCC(N)=O)C(=O)N[C@@H](CCCCN)C(=O)N[C@@H](CCCCN)C(=O)NC(C)(C)C(=O)N[C@@H](CCCNC(=N)N)C(=O)N[C@@H](CCC(=O)O)C(=O)N[C@@H](CCC(N)=O)C(=O)N[C@@H](C)C(=O)N[C@@H](CCC(=O)O)C(=O)N[C@H](C(=O)N[C@@H](CC(N)=O)C(=O)N[C@@H](CCCCN)C(=O)N[C@@H](CCCNC(=N)N)C(=O)N[C@H](C(=O)N[C@@H](CC(C)C)C(=O)N[C@@H](CCC(=O)O)C(=O)N[C@@H](CCCNC(=N)N)C(=O)N[C@H](C(N)=O)C(C)C)[C@@H](C)CC)[C@@H](C)O)[C@@H](C)CC)[C@@H](C)CC)C(C)C)C(C)C [SEQ ID NO: 149, IVLSLDvPIKLK*QILLKQERQKKAibREQAETNKRILERV-NH2] (H-IVLSLD[dV]PIKLK([AEEA-AEEA-γGlu-C18 diacid])QILLKQERQKK[Aib]REQAETNKRILERV-NH2) | 30 h | −11.5% | −2.5%
5 | CC[C@H](C)[C@H](N)C(=O)N[C@H](C(=O)N[C@@H](CC(C)C)C(=O)N[C@@H](CO)C(=O)N[C@@H](CC(C)C)C(=O)N[C@@H](CC(=O)O)C(=O)N[C@@H](C(=O)N1CCC[C@H]1C(=O)N[C@H](C(=O)NCC(=O)N[C@@H](CC(C)C)C(=O)N[C@@H](CCCCNC(=O)COCCOCCNC(=O)COCCOCCNC(=O)CC[C@H](NC(=O)CCCCCCCCCCCCCCCCC(=O)O)C(=O)O)C(=O)N[C@@H](CCC(N)=O)C(=O)N[C@H](C(=O)N[C@@H](CC(C)C)C(=O)N[C@@H](CC(C)C)C(=O)N[C@@H](CCCCN)C(=O)N[C@@H](CCC(N)=O)C(=O)N[C@@H](CCC(=O)O)C(=O)N[C@@H](CCCNC(=N)N)C(=O)N[C@@H](CCC(N)=O)C(=O)N[C@@H](CCCCN)C(=O)N[C@@H](CCCCN)C(=O)NC(C)(C)C(=O)N[C@@H](CCCNC(=N)N)C(=O)N[C@@H](CCC(=O)O)C(=O)N[C@@H](CCC(N)=O)C(=O)N[C@@H](C)C(=O)N[C@@H](CCC(=O)O)C(=O)N[C@@H](CCCCN)C(=O)N[C@@H](CC(N)=O)C(=O)N[C@@H](CCCCN)C(=O)N[C@@H](CCCNC(=N)N)C(=O)N[C@H](C(=O)N[C@@H](CC(C)C)C(=O)N[C@@H](CCC(=O)O)C(=O)N[C@@H](CCCNC(=N)N)C(=O)N[C@H](C(N)=O)C(C)C)[C@@H](C)CC)[C@@H](C)CC)[C@@H](C)CC)C(C)C)C(C)C [SEQ ID NO: 151, IVLSLDvPIGLK*QILLKQERQKKAibREQAEKNKRILERV-NH2] (H-IVLSLD[dV]PIGLK([AEEA-AEEA-γGlu-C18 diacid])QILLKQERQKK[Aib]REQAEKNKRILERV-NH2) | 28 h | −12.3% | −3.8%
